Assay results as given in patent publication US11963966B2, “Compositions and methods for treating ovarian tumors” (Dana-Farber Cancer Institute, Inc., priority 2017, dated 2024).
Entries after “also recorded” stand apart in the source; their conditions may differ. Like-named read-outs stand apart in the source and are kept apart here.

Tests used:
[1] = test system: established ovarian cancer cell lines (OVCAR4, OVCAR8, OVASHO, TYKNU, Kuramachi); assay: Spheroid formation in low adherent surface culture; format: cell-based
Method: FIG. 6A-FIG. 6G are a series of graphs and images depicting the impact of JAK/STAT-inhibition on spheroid formation, invasion and killing ex vivo and in vitro. FIG. 6A a histogram (FIG. 11B), showing drug screening with 14 compounds (at 1 μM) inhibiting the JAK/STAT pathway in OVACR4. Relative viability compared to DMSO control measured by CTG. […] The same library was screened in 2D-cultures of OVACR4 (FIG. 11A), and 2D-cultures of OVACR8 (FIG. 11C) and 3D-cultures of OVACR8 (FIG. 11D). FIG. 6B is a series of plots showing drug sensitivity testing using the GILA assay in platinum-resistant ex vivo spheroid cultures of patients DF3291 and DF3266, The X-axis indicates the log μM concentration of drugs indicated in the legend, Y-axis indicates the percentage of luminescence signal as indicator for viability relatively to DMSO treated cells. In both patients, half maximal effective concentration (EC50) were ˜100 nM and ˜10 nM, respectively, while other drugs routinely used for the treatment of (platinum-resistant) ovarian cancer had EC50>10 μM. FIG. 6C is a series of images of microscopic analysis of spheroids with different drug treatments to highlight the morphologic changes during therapy with drugs listed. Inhibition of JAK/STAT pathway disrupts ex vivo spheroid cultures. […] The X-axis indicates established ovarian cancer cell line ID. Y-axis indicates the relative number of formed spheroids when treated with either JSI-124 or carboplatin compared to untreated parental controls. Error bars indicate the standard deviation from the mean number of spheroids. […] JAK/STAT inhibition prevents spheroid formation. […] The Y-axis indicates the clearance ability (using arbitrary units). 20 spheroids clusters were analyzed for each iteration. Data is shown as mean (horizontal bar), interquartile range (box), and minimum and maximum (whiskers). Statistical analysis was performed using 1-way analysis of variance (ANOVA) and post hoc Tukey-Kramer **P<0.05. […] FIG. 6G is a histogram showing the inhibition of the JAK/STAT pathway. […]

[2] = test system: ex vivo patient-derived ovarian cancer spheroids; assay: Microscopic analysis of patient-derived spheroids/cells after drug treatment; format: cell-based
Method: (§1) FIG. 6A-FIG. 6G are a series of graphs and images depicting the impact of JAK/STAT-inhibition on spheroid formation, invasion and killing ex vivo and in vitro. FIG. 6A a histogram (FIG. 11B), showing drug screening with 14 compounds (at 1 μM) inhibiting the JAK/STAT pathway in OVACR4. Relative viability compared to DMSO control measured by CTG. […] The same library was screened in 2D-cultures of OVACR4 (FIG. 11A), and 2D-cultures of OVACR8 (FIG. 11C) and 3D-cultures of OVACR8 (FIG. 11D). FIG. 6B is a series of plots showing drug sensitivity testing using the GILA assay in platinum-resistant ex vivo spheroid cultures of patients DF3291 and DF3266, The X-axis indicates the log μM concentration of drugs indicated in the legend, Y-axis indicates the percentage of luminescence signal as indicator for viability relatively to DMSO treated cells. In both patients, half maximal effective concentration (EC50) were ˜100 nM and ˜10 nM, respectively, while other drugs routinely used for the treatment of (platinum-resistant) ovarian cancer had EC50>10 μM. FIG. 6C is a series of images of microscopic analysis of spheroids with different drug treatments to highlight the morphologic changes during therapy with drugs listed. Inhibition of JAK/STAT pathway disrupts ex vivo spheroid cultures. […] 20 spheroids clusters were analyzed for each iteration. […]

[3] = test system: OVACR8; assay: Screen of 14 JAK/STAT pathway inhibitors, CellTiterGlo viability, 2D and 3D cultures; format: cell-based; details: OVACR8, 1 μM, 2D and 3D culture
Method: as §1, with “μM.” for “μM. FIG. 6C is a series of images of microscopic analysis of spheroids with different drug treatments to highlight the morphologic changes during therapy with drugs listed. Inhibition of JAK/STAT pathway disrupts ex vivo spheroid cultures.”
FIG. 11A-FIG. 11E are a series of histograms of OVACR4 and OVACR8 ovarian cancer cell lines grown in 2D and 3D cultures and treated with 14 JAK/STAT pathway inhibitors at 1 μM. Vability of the cells was determined using the CellTiterGlo assay. […]

[4] = Adverse effects in JSI-124 treated PDX mice; format: in vivo; details: IP JSI-124 treated PDX mice
Text: A frequently used treatment modality for advanced ovarian cancer is the intraperitoneal administration of chemotherapy, such as cisplatin, which has local effects, but is also systemically reabsorbed to treat potential metastatic disease. […] Tumor growth was compared following IP JSI-124 treatment v. vehicle.

[5] = test system: platinum-resistant ex vivo spheroid cultures of patients DF3266, DF3288, DF3291; assay: Drug sensitivity testing with the growth in low attachment (GILA) assay; format: cell-based
Method: FIG. 6A-FIG. 6G are a series of graphs and images depicting the impact of JAK/STAT-inhibition on spheroid formation, invasion and killing ex vivo and in vitro. FIG. 6A a histogram (FIG. 11B), showing drug screening with 14 compounds (at 1 μM) inhibiting the JAK/STAT pathway in OVACR4. Relative viability compared to DMSO control measured by CTG. […] The same library was screened in 2D-cultures of OVACR4 (FIG. 11A), and 2D-cultures of OVACR8 (FIG. 11C) and 3D-cultures of OVACR8 (FIG. 11D). FIG. 6B is a series of plots showing drug sensitivity testing using the GILA assay in platinum-resistant ex vivo spheroid cultures of patients DF3291 and DF3266, The X-axis indicates the log μM concentration of drugs indicated in the legend, Y-axis indicates the percentage of luminescence signal as indicator for viability relatively to DMSO treated cells. In both patients, half maximal effective concentration (EC50) were ˜100 nM and ˜10 nM, respectively, while other drugs routinely used for the treatment of (platinum-resistant) ovarian cancer had EC50>10 μM. FIG. 6C is a series of images of microscopic analysis of spheroids with different drug treatments to highlight the morphologic changes during therapy with drugs listed. Inhibition of JAK/STAT pathway disrupts ex vivo spheroid cultures. […] The X-axis indicates established ovarian cancer cell line ID. Y-axis indicates the relative number of formed spheroids when treated with either JSI-124 or carboplatin compared to untreated parental controls. Error bars indicate the standard deviation from the mean number of spheroids. […] JAK/STAT inhibition prevents spheroid formation. […] The Y-axis indicates the clearance ability (using arbitrary units). 20 spheroids clusters were analyzed for each iteration. Data is shown as mean (horizontal bar), interquartile range (box), and minimum and maximum (whiskers). Statistical analysis was performed using 1-way analysis of variance (ANOVA) and post hoc Tukey-Kramer **P<0.05. […] FIG. 6G is a histogram showing the inhibition of the JAK/STAT pathway.
Single-cell RNA-sequencing was performed on these platinum-resistant patient samples, using the growth in low attachment (GILA) assay (Rotem et al., 2015 Proc. Natl. Acad. Sci. U.S.A, 112:5708-5713; B. Izar and A. Rotem, 2016 Curr. Protoc. Mol. Biol., 116:28.8.1-28.8.12). […] In contrast, all spheroid cultures were resistant to carboplatin, cisplatin, olaparib and paclitaxel at a similar dose range, with the exception of cisplatin with an EC50 of ˜10 μM in patients DF3266 and DF3288.

[6] = test system: patient ascites-derived spheroids; assay: Mesothelial clearance (invasion through mesothelial monolayer); format: cell-based; details: pre-treatment 30 or 120 minutes followed by drug removal
Method: as §1

[7] = test system: spheroids of ovarian cancer cell lines OVCAR8 and TKYNU; assay: as above; format: cell-based; details: treatment 30 minutes followed by drug removal
Method: as §1

[8] = test system: cells from abdominal ascites of ovarian patient NACT14; assay: Sensitivity of patient-derived ovarian cells in a microfluidic device; format: cell-based; details: 10 μM, ~800 cells in 1 microliter, imaging 48 hours after drug
Method: Heterogeneous cell population isolated from abdominal ascites of ovarian patient NACT14. A limited number of cells (˜800 cells) in a volume of 1 microliter were tested for sensitivity of JSI124. On day 0, the cells were seeded in the microfluidic device. On day 1, drug was administered, together with a blue dye (FIG. 29-FIG. 31).
Hoechst confocal imaging (stained nuclei) was used to observe cells forty eight (48) hours after the drug was added (FIG. 32-FIG. 35).

CC(C)(O)/C=C/C(=O)[C@](C)(O)[C@H]1[C@@H](O)C[C@@]2(C)[C@@H]3CC=C4[C@H](C=C(O)C(=O)C4(C)C)[C@]3(C)C(=O)C[C@]12C [JSI-124, cucurbitacin I]
Number of spheroids vs DMSO control ([1]; Kuramachi): significantly reduced the number of spheroids
Formation of spheroids vs DMSO control ([1]; OVCAR4, OVCAR8, OVASHO, TYKNU): completely abrogated the formation of spheroids
Morphology of ex-vivo patient-derived ovarian cells after treatment ([2]; FIG. 36): massive elimination of tumor cells
Spheroid morphology / integrity ([2]; platinum-resistant ex vivo spheroids): disintegration of the solid 3D spheroid structure
Viability (CellTiterGlo), cell killing [3]: most effective compound leading to cell killing
Adverse effect (body weight, ascites/edema) [4]: increased weight due to increased non-malignant ascites
Emax ([5]; Homo sapiens): ≤ 99%
EC50 ([5]; Homo sapiens, read-out: EC50 (viability, luminescence relative to DMSO), patient DF3266): ~10 nM
EC50 ([5]; Homo sapiens, read-out: EC50 (viability, luminescence relative to DMSO), patient DF3291): ~100 nM
EC50 values, single-agent cytotoxic activity ([5]; all tested models (DF3266, DF3288, DF3291)): nanomolar ranges
Ability to invade (clear) the mesothelial monolayer [6]: significantly reduced ability to invade the mesothelial monolayer; also recorded: unable to invade through the mesothelial monolayer
Ability to invade the mesothelium [7]: abolished their ability to invade the mesothelium; also recorded: unable to invade through the mesothelial monolayer
Effectiveness against patient-derived ovarian cells [8]: Effective
